Legend:
[1] = Stability in liver microsomes, rat; conditions: for AUC Mono (treprostinil formed) / CLint / Half-life: rat; for CLint, calculated (in parentheses) / Half-life, calculated (in parentheses) / CLint / Half-life: microsomes
[2] = Stability in human subcutaneous skin homogenate; conditions: for Mono AUC (treprostinil formed) / AUC: human
[3] = Stability in liver microsomes, dog; conditions: for AUC Mono (treprostinil formed) / CLint / Half-life: dog
[4] = molecular target: T1, prostaglandin D2 (PGD2) receptor 1 (DP1) (Homo sapiens, UniProt Q13258); experiment: DP1 receptor cAMP agonist assay (HEK293T cells); format: cell-based; conditions: for DP1 Relative to Tre: relative to treprostinil EC50 values, * partial agonists or ambiguous dose-response curves; for Activity at the DP1 receptor compared to treprostinil: summary of findings
T1 sequence (Q13258 1-359): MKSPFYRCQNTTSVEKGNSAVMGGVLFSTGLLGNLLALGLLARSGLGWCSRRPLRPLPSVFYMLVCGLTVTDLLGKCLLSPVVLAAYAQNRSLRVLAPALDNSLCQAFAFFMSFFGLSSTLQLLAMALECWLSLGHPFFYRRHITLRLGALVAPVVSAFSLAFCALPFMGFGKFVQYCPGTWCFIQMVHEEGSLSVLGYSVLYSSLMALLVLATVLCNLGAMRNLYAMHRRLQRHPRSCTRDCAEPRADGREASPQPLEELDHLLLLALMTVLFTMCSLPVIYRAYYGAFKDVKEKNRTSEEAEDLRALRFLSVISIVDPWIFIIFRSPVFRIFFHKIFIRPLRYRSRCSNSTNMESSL
Description: Cyclic AMP assay kit: Multiscreen™ TR-FRET cAMP 1.0 No Wash Assay Kit (Multispan, Inc.)
Cells were thawed from frozen cells and resuspended in assay buffer at desired concentrations. cAMP or Calcium assays were performed according to the manufacturer's protocol using Multiscreen™ TR-FRET cAMP 1.0 No Wash Assay Kit or Multiscreen™ Calcium 1.0 No Wash Kit.
Gas Cyclic AMP (cAMP) Assay: In agonist mode testing, cells were seeded in a 384-well plate at an appropriate density and then were treated with compounds and incubated at 37° C. for 20 minutes. The reaction was terminated by […] trFluor™ Eu-labeled cAMP and trFluor™ 650-labeled anti-cAMP antibody in lysis buffer. […] All testing wells contained 0.1% DMSO in the final concentrations.
Data in graphs are represented in Mean±SD. Dose-dependent responses were fitted with sigmoidal dose-response curves allowing variable slopes using GraphPad Prism version 6 (Graphpad Prism).
These studies used cell lines overexpressing either human IP, EP2 or DP1, or EP1 receptors, and following incubation with varying concentrations of compounds, cAMP levels were measured using Fluorescence Resonance Energy Transfer (FRET).

Row | Compound | Treprostinil Concentration 0 min [1] [µM] | Treprostinil Concentration 15 min [1] [µM] | Treprostinil Concentration 30 min [1] [µM] | Treprostinil Concentration 60 min [1] [µM] | Treprostinil Concentration 120 min [1] [µM] | AUC Mono (treprostinil formed) [1] [µmol·min/L] | Treprostinil Concentration 0 min [2] [µM] | Treprostinil Concentration 30 min [2] [µM] | Mono AUC (treprostinil formed) [2] [µmol·min/L] | Treprostinil Concentration 0 min [3] [µM] | Treprostinil Concentration 15 min [3] [µM] | Treprostinil Concentration 30 min [3] [µM] | Treprostinil Concentration 60 min [3] [µM] | Treprostinil Concentration 120 min [3] [µM] | AUC Mono (treprostinil formed) [3] [µmol·min/L] | DP1 Relative to Tre ([4]; Table 22) | CLint, calculated (in parentheses) [1] [mL/min/mg protein] | Half-life, calculated (in parentheses) [1] [min] | CLint [1] [mL/min/mg protein] | Half-life [1] [min] | other results
1 | CCCCCC(CCC1C(O)CC2Cc3c(cccc3OCC(=O)O)CC21)OC(=O)CC (stereo not drawn) [Prodrug LV] | 0.26 | 0.43 | 0.525 | 0.586 | 0.553 | 30.9 | 0.0045 | 0.545 | 78.38 | 0.971 | 0.961 | 0.934 | 0.915 | 0.743 | 53.3 | 94x |  |  |  |  | 
2 | CCCCCC(CCC1C(OC(=O)CC)CC2Cc3c(cccc3OCC(=O)O)CC21)OC(=O)CC (stereo not drawn) [Prodrug LXX, treprostinil dipropionate] | 0.336 | 0.595 | 0.764 | 0.653 | 0.699 | 38.8 | 0 | 0.0179 | 5.303 | 1.24 | 1.26 | 1.24 | 1.23 | 1.07 | 71.9 | 410x | 0.250 | 5.53 | > 0.139 | < 10 | Trep Concentration 0 min [1]: 0.336 µM; Trep Concentration 10 min [1]: 0.595 µM; Trep Concentration 20 min [1]: 0.764 µM; Trep Concentration 30 min [1]: 0.653 µM; Trep Concentration 60 min [1]: 0.699 µM; Trep Concentration 0 min [2]: 0 µM; Trep Concentration 30 min [2]: 0.0179 µM; Trep Concentration 60 min [2]: 0.0411 µM; Trep Concentration 120 min [2]: 0.0972 µM; AUC [2]: 5.303 µmol·min/L; Trep Concentration 0 min [3]: 1.24 µM; Trep Concentration 10 min [3]: 1.26 µM; Trep Concentration 20 min [3]: 1.24 µM; Trep Concentration 30 min [3]: 1.23 µM; Trep Concentration 60 min [3]: 1.07 µM; CLint ([3]; microsomes): >0.139 mL/min/mg protein; Half-life ([3]; microsomes): <10 min; EC50 Fold Different from Treprostinil, DP1 Receptor ([4]; Table 18, * partial agonists or odd dose-response curves): 410x*; DP1 Relative to Tre ([4]; Table 23): 410x; Activity at the DP1 receptor compared to treprostinil [4]: several hundred-fold less active
3 | CCCCCC(CCC1C(OC(=O)OC)CC2Cc3c(cccc3OCC(=O)O)CC21)OC(=O)OC (stereo not drawn) [Prodrug LXXI, treprostinil dicarbonate] |  |  |  |  |  | 33.5 |  |  | 0.3108 |  |  |  |  |  | 56.2 | 2181x* | 0.575 | 2.41 | > 0.139 | < 10 | AUC [2]: 0.3108 µmol·min/L; CLint ([3]; microsomes): > 0.139 mL/min/mg protein; Half-life ([3]; microsomes): < 10 min; CLint, calculated (in parentheses) ([3]; microsomes): 0.454 mL/min/mg protein; Half-life, calculated (in parentheses) ([3]; microsomes): 3.05 min; DP1 Relative to Tre ([4]; Table 23): 2181x*
4 | CCCCCC(CCC1C(O)CC2Cc3c(cccc3OCC(=O)O)CC21)OP(=O)(O)O (stereo not drawn) [Prodrug VI] | 0.27 | 0.39 | 0.46 | 0.53 | 0.73 | 31.4 | 0 | 0.6 | 91.95 | 0.21 | 0.32 | 0.43 | 0.48 | 0.75 | 29.4 | 2x |  |  |  |  | 
5 | CCCCCC(CCC1C(O)CC2Cc3c(cccc3OCC(=O)O)CC21)OC(C)=O (stereo not drawn) [Prodrug XLIII] | 0.035 | 0.0741 | 0.111 | 0.145 | 0.206 | 8.0 | 0.0034 | 0.382 | 62.92 | 0.964 | 0.917 | 0.899 | 0.932 | 0.873 | 54.7 | 272x |  |  |  |  | Treprostinil Concentration 60 min [2]: 0.583 µM; Treprostinil Concentration 120 min [2]: 0.839 µM
6 | treprostinil diacetate [Prodrug LXXII] | 0.0413 | 0.095 | 0.182 | 0.19 | 0.216 | 10.0 | 0 | 0.02 | 7.512 | 1.07 | 1.07 | 1.04 | 1.05 | 0.897 | 60.9 |  | 0.144 | 9.65 | > 0.139 | < 10 | Trep Concentration 0 min [1]: 0.0413 µM; Trep Concentration 10 min [1]: 0.095 µM; Trep Concentration 20 min [1]: 0.182 µM; Trep Concentration 30 min [1]: 0.19 µM; Trep Concentration 60 min [1]: 0.216 µM; Trep Concentration 0 min [2]: 0 µM; Trep Concentration 30 min [2]: 0.02 µM; Trep Concentration 60 min [2]: 0.0556 µM; Trep Concentration 120 min [2]: 0.147 µM; AUC [2]: 7.512 µmol·min/L; Trep Concentration 0 min [3]: 1.07 µM; Trep Concentration 10 min [3]: 1.07 µM; Trep Concentration 20 min [3]: 1.04 µM; Trep Concentration 30 min [3]: 1.05 µM; Trep Concentration 60 min [3]: 0.897 µM; CLint ([3]; microsomes): >0.139 mL/min/mg protein; Half-life ([3]; microsomes): <10 min; Activity at the DP1 receptor compared to treprostinil [4]: several hundred-fold less active

— patent US12491170B2, “Stable treprostinil prodrugs” (United Therapeutics Corporation, priority 2020, dated 2025)
